Measurements published in ChEMBL document CHEMBL1123765, “Psychotropic agents: synthesis and antipsychotic activity of substituted beta-carbolines” (J Med Chem, 1987).

Key:
[1] = molecular target: D(2) dopamine receptor (Rattus norvegicus) (UniProt P61169); assay: In vitro binding affinity for Dopamine receptor D2 of rat nucleus accumbens labeled with [3H]spiperone was determined at 10 uM concentration
[2] = molecular target: D(2) dopamine receptor (Rattus norvegicus) (UniProt P61169); assay: In vitro binding affinity for Dopamine receptor D2 of rat nucleus accumbens labeled with [3H]spiperone was determined at 1 uM concentration
Rattus norvegicus [3] = assay: Antipsychotic activity was assessed by ability to block response of rats trained to avoid an electrical shock (inhibition of self-jump and/or discrete trial conditioned avoidance response(CAR) upon ip administration; assay type: functional
Rattus norvegicus [4] = assay: Antipsychotic activity was assessed by ability to block response of rats trained to avoid an electrical shock (inhibition of self-jump and/or discrete trial conditioned avoidance response(CAR) upon ip administration; value ranges from 14-49; assay type: functional
Rattus norvegicus [5] = assay: Antipsychotic activity was assessed by ability to block response of rats trained to avoid an electrical shock (inhibition of self-jump and/or discrete trial conditioned avoidance response(CAR) upon ip administration; value ranges from 15-33; assay type: functional
Rattus norvegicus [6] = assay: Antipsychotic activity was assessed by ability to block response of rats trained to avoid an electrical shock (inhibition of self-jump and/or discrete trial conditioned avoidance response(CAR) upon ip administration.; assay type: functional
Rattus norvegicus [7] = assay: Antipsychotic activity was assessed by ability to block response of rats trained to avoid an electrical shock (inhibition of self-jump and/or discrete trial conditioned avoidance response(CAR) upon ip administration; value ranges from 7-18; assay type: functional
D(2) dopamine receptor [8] = molecular target: T1, D(2) dopamine receptor (Rattus norvegicus, UniProt P61169); assay: In vitro binding affinity for Dopamine receptor D2 of rat striatum labeled with [3H]-spiperone was determined
Rattus norvegicus [9] = assay: Antipsychotic activity was assessed by ability to block response of rats trained to avoid an electrical shock (inhibition of self-jump and/or discrete trial conditioned avoidance response(CAR) upon ip administration; value ranges from 30-62; assay type: functional
Rattus norvegicus [10] = assay: Antipsychotic activity was assessed by ability to block response of rats trained to avoid an electrical shock (inhibition of self-jump and/or discrete trial conditioned avoidance response(CAR) upon po administration; value ranges from 8-17; assay type: functional
Rattus norvegicus [11] = assay: Antipsychotic activity was assessed by ability to block response of rats trained to avoid an electrical shock (inhibition of self-jump and/or discrete trial conditioned avoidance response(CAR) upon ip administration; value ranges from 6.5-7.5; assay type: functional
Rattus norvegicus [12] = assay: Antipsychotic activity was assessed by ability to block response of rats trained to avoid an electrical shock (inhibition of self-jump and/or discrete trial conditioned avoidance response(CAR) upon ip administration; value ranges from 9-24; assay type: functional
Rattus norvegicus [13] = assay: Antipsychotic activity was assessed by ability to block response of rats trained to avoid an electrical shock (inhibition of self-jump and/or discrete trial conditioned avoidance response(CAR) upon po administration; value ranges from 30-33; assay type: functional
D(2) dopamine receptor [14] = molecular target: T1, D(2) dopamine receptor; assay: In vitro binding affinity for Dopamine receptor D2 of rat nucleus accumbens labeled with [3H]spiperone was determined at 10 uM concentration.
[15] = molecular target: D(2) dopamine receptor (Rattus norvegicus) (UniProt P61169); assay: In vitro binding affinity for Dopamine receptor D2 of rat striatum labeled with [3H]-spiperone was determined at 10 uM concentration; assay type: tissue-based
Rattus norvegicus [16] = assay: Antipsychotic activity was assessed by ability to block response of rats trained to avoid an electrical shock (inhibition of self-jump and/or discrete trial conditioned avoidance response(CAR) upon po administration; value ranges from 0.1-3.5; assay type: functional
Rattus norvegicus [17] = assay: Antipsychotic activity was assessed by ability to block response of rats trained to avoid an electrical shock (inhibition of self-jump and/or discrete trial conditioned avoidance response(CAR) upon ip administration; value ranges from 0.12-0.33; assay type: functional
[18] = molecular target: D(2) dopamine receptor (Rattus norvegicus) (UniProt P61169); assay: In vitro binding affinity for Dopamine receptor D2 of rat striatum labeled with [3H]spiperone was determined at 10 uM concentration; assay type: tissue-based
[19] = molecular target: D(2) dopamine receptor (Rattus norvegicus) (UniProt P61169); assay: In vitro binding affinity for Dopamine receptor D2 of rat nucleus accumbens labeled with [3H]-spiperone was determined at 1 uM concentration
Rattus norvegicus [20] = assay: Antipsychotic activity was assessed by ability to block response of rats trained to avoid an electrical shock (inhibition of self-jump and/or discrete trial conditioned avoidance response(CAR) upon po administration; value ranges from 2-3; assay type: functional
Rattus norvegicus [21] = assay: Antipsychotic activity was assessed by ability to block response of rats trained to avoid an electrical shock (inhibition of self-jump and/or discrete trial conditioned avoidance response(CAR) upon ip administration; value ranges from 2-7; assay type: functional
Rattus norvegicus [22] = assay: Antipsychotic activity was assessed by ability to block response of rats trained to avoid an electrical shock (inhibition of self-jump and/or discrete trial conditioned avoidance response(CAR) upon ip administration; value ranges from 19-78; assay type: functional
Rattus norvegicus [23] = assay: Antipsychotic activity was assessed by ability to block response of rats trained to avoid an electrical shock (inhibition of self-jump and/or discrete trial conditioned avoidance response (CAR) upon ip administration.* >40 indicates insignificant aactivity; assay type: functional
Rattus norvegicus [24] = assay: Antipsychotic activity was assessed by ability to block response of rats trained to avoid an electrical shock (inhibition of self-jump and/or discrete trial conditioned avoidance response(CAR) upon ip administration; value ranges from 33-37; assay type: functional
Rattus norvegicus [25] = assay: Antipsychotic activity was assessed by ability to block response of rats trained to avoid an electrical shock (inhibition of self-jump and/or discrete trial conditioned avoidance response(CAR) upon ip administration; value ranges from 15-22; assay type: functional

Sequence of D(2) dopamine receptor (Rattus norvegicus) (P61169 whole entry): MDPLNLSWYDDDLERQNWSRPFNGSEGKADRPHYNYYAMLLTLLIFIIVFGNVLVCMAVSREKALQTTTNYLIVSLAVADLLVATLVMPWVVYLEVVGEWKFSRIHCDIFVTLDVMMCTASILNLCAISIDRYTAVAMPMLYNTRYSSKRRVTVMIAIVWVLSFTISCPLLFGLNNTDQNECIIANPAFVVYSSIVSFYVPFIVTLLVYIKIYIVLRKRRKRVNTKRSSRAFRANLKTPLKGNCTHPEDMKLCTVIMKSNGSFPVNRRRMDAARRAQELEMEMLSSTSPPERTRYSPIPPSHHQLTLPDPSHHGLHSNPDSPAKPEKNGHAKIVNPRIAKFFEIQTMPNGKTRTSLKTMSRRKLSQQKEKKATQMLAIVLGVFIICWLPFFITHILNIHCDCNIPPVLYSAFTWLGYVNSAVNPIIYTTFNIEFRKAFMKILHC
T1 sequence (P61169 whole entry): as above

## COc1cccc(OC)c1CN1CCc2c([nH]c3ccccc23)C1
[1]
  inhibition: 27%
[2]
  inhibition: 15%

## Fc1ccc(C(CCCN2CCc3c([nH]c4ccccc34)C2)c2ccc(F)cc2)cc1
Rattus norvegicus [3]
  AB50: >40 mg/kg

## CN(C)CCCn1c2c(c3ccccc31)CCN(CCCc1cccnc1)C2
[1]
  inhibition: 17%
Rattus norvegicus [3]
  AB50: >40 mg/kg

## c1ccc(CCN2CCc3c([nH]c4ccccc34)C2)nc1
[2]
  inhibition: 38%
Rattus norvegicus [4]
  AB50: 23 mg/kg

## c1coc(CN2CCc3c([nH]c4ccccc34)C2)c1
[2]
  inhibition: 7%

## c1cncc(CCCN2CCc3c([nH]c4ccccc34)C2)c1
Rattus norvegicus [5]
  AB50: 21 mg/kg

## Clc1cccc(N2CCN(CCCn3c4c(c5ccccc53)CCN(CCCc3cccnc3)C4)CC2)c1
Rattus norvegicus [3]
  AB50: >40 mg/kg

## CN(C)CCCn1c2c(c3ccccc31)CCN(CCCc1ccncc1)C2
[2]
  inhibition: 0%
Rattus norvegicus [3]
  AB50: >40 mg/kg

## COc1ccc2[nH]c3c(c2c1)CCN(Cc1c(OC)cccc1OC)C3
[1]
  inhibition: 27%
[2]
  inhibition: 15%

## Fc1ccc(C(c2ccc(F)cc2)N2CCN(CCCN3CCc4c([nH]c5ccccc45)C3)CC2)cc1
Rattus norvegicus [3]
  AB50: >40 mg/kg

## c1ccc2c3c([nH]c2c1)CN(CCCc1ccncc1)CC3
Rattus norvegicus [6]
  AB50: 40 mg/kg

## Fc1ccc2[nH]c3c(c2c1)CCN(CCc1ccccn1)C3
[2]
  inhibition: 75%
Rattus norvegicus [3]
  AB50: 40 mg/kg

## Fc1ccc2[nH]c3c(c2c1)CCN(CCc1ccc2ccccc2n1)C3
Rattus norvegicus [3]
  AB50: 40 mg/kg

## c1ccc2nc(CCN3CCc4c([nH]c5ccccc45)C3)ccc2c1
Rattus norvegicus [7]
  AB50: 10 mg/kg
D(2) dopamine receptor [8]
  Ki: 211 nM

## C[C@@H]1CN(CCCn2c3ccccc3c3ccccc32)C[C@H](C)N1 [RIMCAZOLE]
Rattus norvegicus [9]
  AB50: 39 mg/kg

## Clc1ccc2[nH]c3c(c2c1)CCN(CCc1ccc2ccccc2n1)C3
Rattus norvegicus [3]
  AB50: >40 mg/kg

## c1ccc2c(N3CCc4c([nH]c5ccccc45)C3)ccnc2c1
[2]
  inhibition: 7%
Rattus norvegicus [3]
  AB50: >40 mg/kg

## CN1CCN(C2=Nc3cc(Cl)ccc3Nc3ccccc32)CC1 [CLOZAPINE]
Rattus norvegicus [10]
  AB50: 11 mg/kg
Rattus norvegicus [11]
  AB50: 7 mg/kg

## Fc1ccc2[nH]c3c(c2c1)CCN(CCCCc1ccnc2ccccc12)C3
Rattus norvegicus [3]
  AB50: >40 mg/kg

## c1ccc2c3c([nH]c2c1)CN(CCCCc1ccncc1)CC3
Rattus norvegicus [12]
  AB50: 14 mg/kg
D(2) dopamine receptor [8]
  Ki: 525 nM
Rattus norvegicus [13]
  AB50: 31 mg/kg

## Clc1cccc(N2CCN(CCCn3c4c(c5ccccc53)CCN(CCc3ccccn3)C4)CC2)c1
Rattus norvegicus [3]
  AB50: >40 mg/kg

## c1cncc(CCCN2CCc3c(n(CCCN4CCCCC4)c4ccccc34)C2)c1
[1]
  inhibition: 26%
Rattus norvegicus [3]
  AB50: >40 mg/kg

## c1ccc(Cn2c3c(c4ccccc42)CCN(CCc2ccccn2)C3)cc1
Rattus norvegicus [3]
  AB50: >40 mg/kg

## Fc1ccc2[nH]c3c(c2c1)CCN(CCCCc1ccncc1)C3
D(2) dopamine receptor [14]
  Ki: 720 nM
Rattus norvegicus [3]
  AB50: >40 mg/kg

## c1ccc2nc(CN3CCc4c([nH]c5ccccc45)C3)ccc2c1
[2]
  inhibition: 7%
Rattus norvegicus [3]
  AB50: 48 mg/kg
[15]
  inhibition: 7%

## COc1ccc2[nH]c3c(c2c1)CCN(CCc1ccccn1)C3
[2]
  inhibition: 8%

## c1ccc2c(CN3CCc4c([nH]c5ccccc45)C3)ccnc2c1
[2]
  inhibition: 26%
Rattus norvegicus [3]
  AB50: >40 mg/kg

## c1ccc(CCN2CCc3c(n(CCCN4CCCCC4)c4ccccc34)C2)nc1
[1]
  inhibition: 9%
Rattus norvegicus [3]
  AB50: >40 mg/kg

## O=C(CCCN1CCC(O)(c2ccc(Cl)cc2)CC1)c1ccc(F)cc1 [HALOPERIDOL]
Rattus norvegicus [16]
  AB50: 0.2 mg/kg
Rattus norvegicus [17]
  AB50: 0.2 mg/kg

## O=C(c1nccc2ccccc12)N1CCc2c([nH]c3ccccc23)C1
[2]
  inhibition: 6%
Rattus norvegicus [3]
  AB50: >40 mg/kg

## c1ccc2c3c([nH]c2c1)CN(CCc1cnccn1)CC3
[2]
  inhibition: 13%

## c1ccc2c(c1)c1c(n2CCCN2CCCCC2)CN(CCCc2ccncc2)CC1
[1]
  inhibition: 22%
Rattus norvegicus [3]
  AB50: >40 mg/kg

## c1ccc2c3c([nH]c2c1)CN(Cc1ccncc1)CC3
[2]
  inhibition: 13%
[18]
  inhibition: 27%

## COc1ccc2[nH]c3c(c2c1)CCN(CCc1ccncc1)C3
[19]
  inhibition: 53%

## O=C(CCCn1c2c(c3ccccc31)CCN(CCc1ccccn1)C2)c1ccc(F)cc1
Rattus norvegicus [3]
  AB50: >40 mg/kg

## CN(C)CCCN1c2ccccc2Sc2ccc(Cl)cc21 [CHLORPROMAZINE]
Rattus norvegicus [20]
  AB50: 3 mg/kg
Rattus norvegicus [21]
  AB50: 4 mg/kg

## c1ccc2nc(CCCCN3CCc4c([nH]c5ccccc45)C3)ccc2c1
D(2) dopamine receptor [8]
  Ki: 139 nM
Rattus norvegicus [22]
  AB50: 31 mg/kg

## Cn1c(CN2CCc3c([nH]c4ccccc34)C2)nc2ccccc21
[2]
  inhibition: 6%

## OC1(c2ccc(Cl)cc2)CCN(CCCn2c3c(c4ccccc42)CCN(CCc2ccccn2)C3)CC1
Rattus norvegicus [3]
  AB50: >40 mg/kg

## FC(F)(F)c1cccc(N2CCN(CCCN3CCc4c([nH]c5ccccc45)C3)CC2)c1
Rattus norvegicus [3]
  AB50: >40 mg/kg

## Clc1ccc2[nH]c3c(c2c1)CCN(CCCCc1ccncc1)C3
[2]
  inhibition: 51%
Rattus norvegicus [3]
  AB50: >40 mg/kg

## Clc1ccc2[nH]c3c(c2c1)CCN(CCc1ccncc1)C3
Rattus norvegicus [23]
  AB50: >40 mg/kg

## c1cnc(N2CCN(CCCN3CCc4c([nH]c5ccccc45)C3)CC2)nc1
Rattus norvegicus [24]
  AB50: 35 mg/kg

## c1ccc2c(CCCCN3CCc4c([nH]c5ccccc45)C3)ccnc2c1
Rattus norvegicus [25]
  AB50: 18 mg/kg

## CC1CN(CCCN2CCc3c([nH]c4ccccc34)C2)CC(C)N1 (configuration not stated)
[2]
  inhibition: 38%
Rattus norvegicus [3]
  AB50: >40 mg/kg

## Clc1cccc(N2CCN(CCCN3CCc4c([nH]c5ccccc45)C3)CC2)c1
Rattus norvegicus [3]
  AB50: >40 mg/kg

## FC(F)(F)c1ccc(CN2CCN(CCCN3CCc4c([nH]c5ccccc45)C3)CC2)cc1
Rattus norvegicus [3]
  AB50: >40 mg/kg
